The text below walks through data of DBAASP.

In brackets after ≈: the same amount, converted by molar mass. A value given as a limit tells only on which side of the number the result lay.

Some test systems named below: Bacillus megaterium Bm11; Staphylococcus capitis 1; Botrytis cinerea; Escherichia coli JM109; Staphylococcus aureus; Streptococcus mutans.
Holding throughout (test): ≥ marks a high value that may be exact or a test limit, other limits are often not marked, values filed in µg/mL are converted to µM
In experiment [1] the test system is Candida albicans ATCC 10231.
Experiment [2] deals with Escherichia coli ATCC 25922.
For experiment [3], the system named is Staphylococcus aureus Cowan 1.
Experiment [4] has as its system Yersinia pseudotuberculosis YPIII.
The subject of experiment [5] is Escherichia coli ATCC 11775.
Experiment [6] has as its system Staphylococcus aureus ATCC 12600.
For experiment [7], the system named is Pseudomonas aeruginosa 253.
Experiment [8] relates to Pseudomonas aeruginosa 910.
Experiment [9] relates to Pseudomonas aeruginosa 919.
For experiment [10], the system named is Pseudomonas aeruginosa PAO1.
For experiment [11], the system named is Bacillus subtilis ATCC 6633.
Experiment [12] relates to Candida albicans ATCC 20032.
Experiment [13] deals with Staphylococcus aureus ATCC 25923.
In experiment [14] the test system is Staphylococcus aureus ATCC 6538P.
The test system of experiment [15] is Lacticaseibacillus casei ATCC 4646.
Experiment [16] has as its system Streptococcus gordonii Challis DL1.
The subject of experiment [17] is Streptococcus mitis ATCC 903.
Experiment [18] relates to Streptococcus sanguinis NY101.
Experiment [19] concerns Veillonella atypica PK1910.

The term MIC denotes the lowest concentration found to suppress growth. High values mean weaker potency, low ones greater potency. Take `CC[C@H](C)[C@H](NC(=O)CNC(=O)[C@H](CO)NC(=O)[C@H](CC(C)C)NC(=O)[C@@H](NC(=O)[C@H](CCCN=C(N)N)NC(=O)CNC(=O)[C@@H](NC(=O)[C@H](CC(C)C)NC(=O)[C@@H]1CCCN1C(=O)[C@H](C)NC(=O)[C@@H](N)Cc1ccccc1)[C@@H](C)CC)C(C)C)C(=O)N[C@@H](CC(C)C)C(N)=O` [FAPLIGRVLSGIL]: the minimum inhibitory concentration (MIC) was 5 µM (≈ 6.77 µg/mL) against Bacillus megaterium Bm11; 10 µM (≈ 13.5 µg/mL) in experiment [1]; over 40 µM in [2]; 20 µM (≈ 27.1 µg/mL) in experiment [3]; 20 µM (≈ 27.1 µg/mL) in the experiment with Staphylococcus capitis 1; at least 40 µM in experiment [4].
`CC[C@H](C)[C@H](NC(=O)CNC(=O)[C@H](CO)NC(=O)[C@H](CC(C)C)NC(=O)[C@H](CC(C)C)NC(=O)CNC(=O)[C@@H](NC(=O)[C@@H](NC(=O)[C@@H]1CCCN1C(=O)CNC(=O)[C@@H](N)Cc1ccccc1)C(C)C)[C@@H](C)CC)C(=O)N[C@@H](CC(C)C)C(=O)N[C@@H](CCCCN)C(=O)N[C@@H](CO)C(=O)N[C@@H](CC(C)C)C(=O)N[C@@H](CC(C)C)C(=O)O` [FGPVIGLLSGILKSLL]: the MIC in the experiment on Botrytis cinerea was 5 µM (≈ 8.14 µg/mL); in experiment [1] it was over 200 µM; in experiment [5], at least 200 µM; in experiment [6] it was at least 50 µM.
Consider `CC[C@H](C)[C@H](NC(=O)[C@@H](N)Cc1ccccc1)C(=O)N[C@@H](CCCCN)C(=O)N[C@@H](Cc1c[nH]c2ccccc12)C(=O)N[C@@H](CCCCN)C(=O)N[C@@H](Cc1ccccc1)C(=O)N[C@@H](CCCN=C(N)N)C(=O)N1CCC[C@H]1C(=O)N[C@@H](Cc1c[nH]c2ccccc12)C(=O)N[C@@H](CCCCN)C(=O)N[C@@H](CCCCN)C(=O)N[C@@H](CCCN=C(N)N)C(=O)N[C@H](C(N)=O)[C@@H](C)O` [FIKWKFRPWKKRT], for which the MIC in experiment [7] was determined as 16 µM (≈ 29.1 µg/mL); in experiment [8] it was 8 µM (≈ 14.6 µg/mL); in experiment [9], 22.6 µM (≈ 41.2 µg/mL); in experiment [10], 4 µM (≈ 7.28 µg/mL).
For the molecule `CC[C@H](C)[C@H](NC(=O)[C@H](C)NC(=O)[C@H](CO)NC(=O)[C@H](CC(C)C)NC(=O)[C@@H](NC(=O)[C@H](CCCN=C(N)N)NC(=O)CNC(=O)[C@@H](NC(=O)[C@H](CC(C)C)NC(=O)[C@@H]1CCCN1C(=O)[C@H](CC(C)C)NC(=O)[C@@H](N)Cc1ccccc1)[C@@H](C)CC)C(C)C)C(=O)N[C@@H](CC(C)C)C(N)=O` [FLPLIGRVLSAIL], the MIC was 2.5 µM (≈ 3.53 µg/mL) in the experiment on Bacillus megaterium Bm11; 2.5 µM (≈ 3.53 µg/mL) in experiment [1]; over 40 µM in experiment [2]; 2.5 µM (≈ 3.53 µg/mL) in experiment [3]; 5 µM (≈ 7.05 µg/mL) against Staphylococcus capitis 1; 20 µM (≈ 28.2 µg/mL) in [4].
Consider `CC[C@H](C)[C@H](NC(=O)CN)C(=O)NCC(=O)NCC(=O)N[C@@H](CCCCN)C(=O)N[C@H](C(=O)N[C@@H](CC(C)C)C(=O)NCC(=O)NCC(=O)N[C@@H](CC(C)C)C(=O)N[C@@H](CCCN=C(N)N)C(=O)N[C@H](C(=O)N[C@@H](C)C(=O)N[C@@H](CC(C)C)C(=O)N[C@@H](CCCCN)C(=O)NCC(=O)N[C@@H](C)C(=O)N[C@@H](C)C(=O)N[C@@H](CCCCN)C(=O)N[C@@H](CCC(=O)O)C(=O)N[C@@H](CC(C)C)C(=O)N[C@@H](C)C(=O)N[C@@H](C)C(=O)N[C@H](C(=O)N[C@@H](Cc1ccc(O)cc1)C(=O)N[C@@H](CC(C)C)C(=O)N[C@@H](Cc1cnc[nH]1)C(N)=O)[C@@H](C)O)[C@@H](C)O)[C@@H](C)CC` [GIGGKILGGLRTALKGAAKELAATYLH], for which the MIC in [11] is 28 µM (≈ 75 µg/mL); in [12], at least 37.3 µM; in [2] it was 3.51 µM (≈ 9.4 µg/mL); in experiment [13], 1.75 µM (≈ 4.7 µg/mL).
In the experiment with Escherichia coli JM109, `CC[C@H](C)[C@H](N)C(=O)N[C@@H](CC(C)C)C(=O)N1CCC[C@H]1C(=O)N[C@@H](Cc1c[nH]c2ccccc12)C(=O)N[C@@H](CCCCN)C(=O)N[C@@H](Cc1c[nH]c2ccccc12)C(=O)N[C@@H](CCCCN)C(=O)N[C@@H](Cc1ccccc1)C(=O)N[C@@H](Cc1ccccc1)C(=O)N1CCC[C@H]1C(=O)N[C@@H](Cc1c[nH]c2ccccc12)C(=O)N[C@@H](CCCN=C(N)N)C(=O)N[C@@H](CCCN=C(N)N)C(N)=O` [ILPWKWKFFPWRR] yielded an MIC of 1 µM (≈ 1.86 µg/mL).
For the molecule `CC[C@H](C)[C@H](NC(=O)[C@H](C)NC(=O)[C@H](CC(C)C)NC(=O)[C@H](CS)NC(=O)[C@H](Cc1cnc[nH]1)NC(=O)[C@H](C)NC(=O)[C@H](C)NC(=O)[C@H](CS)NC(=O)[C@@H](N)CC(C)C)C(=O)NCC(=O)N[C@@H](CCCN=C(N)N)C(=O)N[C@@H](CCCN=C(N)N)C(N)=O` [LCAAHCLAIGRR], the MIC in the experiment with Escherichia coli JM109 is at least 37.4 µM; in [14] it was 14 µM; against Staphylococcus aureus, over 49.9 µM.
Regarding `NCCCC[C@H](NC(=O)[C@H](Cc1ccccc1)NC(=O)CNC(=O)CNC(=O)CNC(=O)[C@H](Cc1ccccc1)NC(=O)[C@H](Cc1c[nH]c2ccccc12)NC(=O)[C@H](CCCN=C(N)N)NC(=O)[C@H](Cc1c[nH]c2ccccc12)NC(=O)[C@H](CCCN=C(N)N)NC(=O)[C@H](Cc1c[nH]c2ccccc12)NC(=O)[C@@H](N)CCCN=C(N)N)C(=O)N[C@@H](CCCCN)C(=O)N[C@@H](Cc1ccccc1)C(=O)N[C@@H](Cc1c[nH]c2ccccc12)C(=O)N[C@@H](CCCCN)C(=O)N[C@@H](Cc1c[nH]c2ccccc12)C(=O)N[C@@H](Cc1ccccc1)C(=O)N[C@@H](CCCN=C(N)N)C(=O)N[C@@H](CCCN=C(N)N)C(=O)N[C@@H](Cc1ccccc1)C(N)=O` [RWRWRWFGGGFKKFWKWFRRF], the MIC in experiment [15] is 2.65 µM (≈ 8 µg/mL); in experiment [16] it was 5.3 µM (≈ 16 µg/mL); in [17], 21.2 µM (≈ 64 µg/mL); in the experiment with Streptococcus mutans, 1.87 µM (≈ 5.66 µg/mL); in [18] it was 2.65 µM (≈ 8 µg/mL); in experiment [19], 2.65 µM (≈ 8 µg/mL).
For `CC(C)C[C@H](NC(=O)CNC(=O)CNC(=O)CNC(=O)[C@H](Cc1ccccc1)NC(=O)[C@H](Cc1c[nH]c2ccccc12)NC(=O)[C@H](CCCN=C(N)N)NC(=O)[C@H](Cc1c[nH]c2ccccc12)NC(=O)[C@H](CCCN=C(N)N)NC(=O)[C@H](Cc1c[nH]c2ccccc12)NC(=O)[C@@H](N)CCCN=C(N)N)C(=O)N[C@@H](CCCCN)C(=O)N[C@@H](CCCN=C(N)N)C(=O)N[C@@H](Cc1ccccc1)C(=O)N[C@@H](CC(C)C)C(=O)N[C@@H](CCCCN)C(=O)N[C@@H](Cc1c[nH]c2ccccc12)C(=O)N[C@@H](Cc1ccccc1)C(=O)N[C@@H](CCCCN)C(=O)N[C@@H](CCCN=C(N)N)C(=O)N[C@@H](Cc1ccccc1)C(N)=O` [RWRWRWFGGGLKRFLKWFKRF], the MIC came to 2.74 µM (≈ 8 µg/mL) in [15]; 11 µM (≈ 32 µg/mL) in experiment [16]; 22 µM (≈ 64 µg/mL) in experiment [17]; 2.74 µM (≈ 8 µg/mL) against Streptococcus mutans; 5.49 µM (≈ 16 µg/mL) in experiment [18]; 5.49 µM (≈ 16 µg/mL) in [19].
`CC[C@H](C)[C@H](NC(=O)[C@H](CCCCN)NC(=O)[C@H](CCCN=C(N)N)NC(=O)[C@H](Cc1c[nH]c2ccccc12)NC(=O)[C@H](Cc1c[nH]c2ccccc12)NC(=O)[C@@H](N)CCCN=C(N)N)C(=O)N[C@@H](Cc1c[nH]c2ccccc12)C(=O)N[C@@H](CCCCN)C(=O)N[C@@H](Cc1c[nH]c2ccccc12)C(N)=O` [RWWRKIWKW]: the MIC in [7] came to 8 µM (≈ 11.6 µg/mL); in experiment [8], 8 µM (≈ 11.6 µg/mL); in experiment [9], 2.83 µM (≈ 4.08 µg/mL); in experiment [10] it was 2 µM (≈ 2.89 µg/mL).
